The results in this text go back to US20230159510A1, “NOVEL PRMT5 INHIBITORS” (AMGEN INC., priority 2020, published 2023).

For assay [1], the system named is HCT116 MTAP null cells. The experiment in a line: HCT116 proliferation assay, MTAP null cells (CellTiter-Glo, 6 days). Format: cell-based. The settings on record: HCT116-MTAP null, 144 h, read-out: Protif_ HCT116-MTAP null IC50. Summed up:
(§1)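 Luminescent viability signal was measured after continuous drug exposure. Before dosing, cells attached overnight (37° C, 5% CO2) in RPMI 1640 + 10% FBS. Dosing used 1:3 steps over 8 or 9 points, starting at 1 or 10 µM, with DMSO-only wells as control.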
On the technique in general: Cellular ATP, detected with luciferase, serves as a proxy for viable cell number.

For assay [2], the target named is PRMT5/MEP50 (Homo sapiens, UniProt O14744). The experiment in a line: MTase-Glo methyl transferase assay, Method B (FL-Histone H2A, 1 µM MTA, 1 h pre-incubation). Format: biochemical. Further details: purchased Reaction Biology Corp RD-11-292. The settings on record: read-out: PRMT5 MTase Glo Ki (nM, Meth. B). Summed up: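 PRMT5/MEP50 (4 nM) was pre-incubated 1 h with compound, 5 µM SAM and 1 µM MTA, then started with 2.5 µM FL-Histone H2A in Tris pH 8.0 buffer. After 20 h at room temperature, SAH was detected by MTase-Glo luminescence, and IC50/KI were fitted from dose-response curves.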

Assay [3] has as its system HCT116 WT cells. As to the kind of experiment: HCT116 proliferation assay, WT cells (CellTiter-Glo, 6 days). Format: cell-based. The settings on record: read-out: Prolif_HCT116-WT IC50. Summed up:
as §1

Read-outs that look alike come from different tables or passages of the source.

Chain of PRMT5/MEP50 (O14744 2-637 limits assumed): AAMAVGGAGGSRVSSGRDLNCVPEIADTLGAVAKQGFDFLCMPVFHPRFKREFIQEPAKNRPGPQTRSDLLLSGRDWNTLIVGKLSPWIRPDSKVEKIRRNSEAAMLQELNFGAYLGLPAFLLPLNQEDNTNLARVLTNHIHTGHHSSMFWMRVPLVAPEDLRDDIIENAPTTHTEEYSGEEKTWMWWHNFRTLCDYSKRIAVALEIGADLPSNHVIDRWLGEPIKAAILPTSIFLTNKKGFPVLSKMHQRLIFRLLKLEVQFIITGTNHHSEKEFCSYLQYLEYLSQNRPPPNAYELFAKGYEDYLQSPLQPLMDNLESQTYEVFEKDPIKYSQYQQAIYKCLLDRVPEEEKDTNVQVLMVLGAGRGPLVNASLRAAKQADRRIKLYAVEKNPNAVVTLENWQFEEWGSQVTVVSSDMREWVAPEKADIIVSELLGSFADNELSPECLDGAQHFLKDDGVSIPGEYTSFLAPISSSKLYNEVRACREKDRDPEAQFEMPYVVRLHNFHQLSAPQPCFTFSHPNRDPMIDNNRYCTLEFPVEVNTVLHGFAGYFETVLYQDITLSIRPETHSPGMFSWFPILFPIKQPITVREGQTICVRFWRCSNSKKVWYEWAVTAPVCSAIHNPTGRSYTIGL
Chain of PRMT5/MEP50 (Q9BQA1 2-342 partner limits assumed): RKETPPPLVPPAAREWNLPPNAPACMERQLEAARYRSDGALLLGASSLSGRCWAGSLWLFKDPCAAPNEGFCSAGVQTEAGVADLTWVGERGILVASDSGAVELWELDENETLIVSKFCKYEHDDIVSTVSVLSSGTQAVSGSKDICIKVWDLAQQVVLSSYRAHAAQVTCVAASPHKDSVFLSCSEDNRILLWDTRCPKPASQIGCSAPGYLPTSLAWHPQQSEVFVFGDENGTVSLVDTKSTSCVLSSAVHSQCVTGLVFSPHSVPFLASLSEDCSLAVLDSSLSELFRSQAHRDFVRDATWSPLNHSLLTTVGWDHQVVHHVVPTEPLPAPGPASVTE

As a reminder, the IC50 is the point on the concentration scale where inhibition reaches its midpoint. The term Ki denotes a dissociation constant, usually derived from enzyme kinetics or from competition with a known ligand. Take `Cc1cc2cc(C(=O)N(Cc3ccc(C(F)(F)F)cn3)C3CCc4[nH]ncc4C3)ccc2nc1N` (stereo not drawn) [Example 672, 2-amino-3-methyl-N-(4,5,6,7-tetrahydro-1H-mdazol-5-yl)-N-[[5-(trifluoromethyl)-2-pyridyl]methyl] quinoline-6-carboxamide]: the concentration for half-maximal inhibition (IC50) in assay [1] was 404 nM; in assay [3] (Homo sapiens, HCT-116, 144 h) it was > 1000 nM. In addition, the Ki in assay [2] came out at 5.56 nM.

`Cc1csc(CN(Cc2ccc(C(F)(F)F)cn2)C(=O)c2ccc3nc(N)c(C)cc3c2)n1` [Example 708, 2-amino-3-methyl-N-[(4-methylthiazol-2-yl)methyl]-N-[[5-(trifluoromethyl)-2-pyridyl]methyl]quinoline-6-carboxamide]: the IC50 in assay [1] is 155 nM; in assay [3] (Homo sapiens, HCT-116, 144 h), > 1000 nM. In addition, the inhibition constant Ki in assay [2] is 2.79 nM.

For the compound `Cc1cc2cc(C(=O)N(Cc3ccc(C(F)(F)F)cn3)CC(C)C#N)ccc2nc1N` (stereo not drawn) [Example 694, 2-amino-N-(2-cyanopropyl)-3-methyl-N-[[5-(trifluoromethyl)-2-pyridyl]methyl] quinoline-6-carboxamide], the IC50 in assay [1] came to 224 nM; in assay [3] (Homo sapiens, HCT-116, 144 h), 8600 nM. Also, in assay [2], the inhibition constant (Ki) stood at 5.62 nM.

For the compound `Cc1cc2cc(C(=O)N(Cc3ccc4[nH]c(=O)oc4c3)Cc3ccc(C(F)(F)F)cn3)ccc2nc1N` [Example 620, 2-amino-3-methyl-N-((2-oxo-2,3-dihydrobenzo [d]oxazol-6-yl)methyl)-N-((5-(trifluoromethyl)pyridin-2-yl)methyl)quinoline-6-carboxamide], the IC50 in assay [1] is 100 nM; in assay [3] (Homo sapiens, HCT-116, 144 h) it was > 1000 nM. In addition, the inhibition constant Ki in assay [2] turned out to be 1.83 nM.

`Cc1cc2cc(C(=O)N(Cc3ccc(C(F)(F)F)cn3)Cc3ccc4cc[nH]c4n3)ccc2nc1N` [Example 615, N-((1H-pyrrolo [2,3-b]pyridin-6-yl)methyl)-2-amino-3-methyl-N-((5-(trifluoromethyl)pyridin-2-yl)methyl)quinoline-6-carboxamide]: the half-inhibitory concentration (IC50) in assay [1] was found to be 276 nM; in assay [3] (Homo sapiens, HCT-116, 144 h), 3500 nM. Moreover, the inhibitory constant (Ki) in assay [2] turned out to be 1.62 nM.

Consider `Cc1cc2cc(C(=O)N(Cc3ccc(N4CCC(C(N)=O)CC4)cc3)Cc3scnc3C)ccc2nc1N` [Example 572, 2-amino-N-(4-(4-carbamoylpiperidin-1-yl)benzyl)-3-methyl-N-((4-methylthiazol-5-yl)methyl)quinoline-6-carboxamide], for which the half-maximal inhibitory concentration (IC50) in assay [1] is 608 nM; in assay [3] (Homo sapiens, HCT-116, 144 h), > 10000 nM. In assay [2], the Ki turned out to be 3.48 nM.

For the compound `Cc1cc2cc(C(=O)N(Cc3ccc(C(F)(F)F)cn3)Cc3c[nH]c4ccccc34)ccc2nc1N` [Example 567, 2-amino-N-(1H-indol-3-ylmethyl)-3-methyl-N-[[5-(trifluoromethyl)-2-pyridyl]methyl] quinoline-6-carboxamide], the half-inhibitory concentration (IC50) in assay [1] is 103 nM; in assay [3] (Homo sapiens, HCT-116, 144 h), > 1000 nM. Also, the inhibition constant Ki in assay [2] was 4.44 nM.

In the case of `Cc1cc2cc(C(=O)N(CCc3ncon3)Cc3ccc(C(F)(F)F)cn3)ccc2nc1N` [Example 576, N-(2-(1,2,4-oxadiazol-3-yl)ethyl)-2-amino-3-methyl-N-((5-(trifluoromethyl)pyridin-2-yl)methyl)quinoline-6-carboxamide], the IC50 was 749 nM in assay [1] and > 10000 nM in assay [3] (Homo sapiens, HCT-116, 144 h). For the same compound, the inhibition constant Ki in assay [2] was determined as 5.89 nM.

As to `Cc1cc2cc(C(=O)N(Cc3ccc(C(F)(F)F)cn3)CC3CCc4[nH]cnc4C3)ccc2nc1N` (stereo not drawn) [Example 617, 2-amino-3-methyl-N-((4,5,6,7-tetrahydro-1H-benzo[d]imidazol-5-yl)methyl)-N-((5-(trifluoromethyl)pyridin-2-yl)methyl)quinoline-6-carboxamide], the 50% inhibitory concentration (IC50) in assay [1] is 286 nM; in assay [3] (Homo sapiens, HCT-116, 144 h), > 1000 nM. Further, the inhibition constant Ki in assay [2] stood at 1.72 nM.

As for `Cc1cc2cc(C(=O)N(Cc3ccc(C(F)(F)F)cn3)C3CCCC(O)C3)ccc2nc1N` (stereo not drawn) [Example 612, 2-amino-N-(3-hydroxycyclohexyl)-3-methyl-N-((5-(trifluoromethyl)pyridin-2-yl)methyl)quinoline-6-carboxamide], the 50% inhibitory concentration (IC50) is 340 nM in assay [1] and > 1000 nM in assay [3] (Homo sapiens, HCT-116, 144 h). In addition, in assay [2], the Ki came to 7.56 nM.

`Cc1cc2cc(C(=O)N(Cc3cccc(O)c3)Cc3ccc(C(F)(F)F)cn3)ccc2nc1N` [Example 600, 2-amino-N-[(3-hydroxyphenyl)methyl]-3-methyl-N-[[5-(trifluoromethyl)-2-pyridyl]methyl] quinoline-6-carboxamide]: the IC50 was 44 nM in assay [1] and > 1000 nM in assay [3] (Homo sapiens, HCT-116, 144 h). The Ki in assay [2] was found to be 1.83 nM.

On to `Cc1cc2cc(C(=O)N(Cc3ccc(C(F)(F)F)cn3)C3CCCc4occc43)ccc2nc1N` (stereo not drawn) [Example 606, 2-amino-3-methyl-N-(4,5,6,7-tetrahydrobenzofuran-4-yl)-N-((5-(trifluoromethyl)pyridin-2-yl)methyl)quinoline-6-carboxamide], for which the IC50 in assay [1] was 27 nM; in assay [3] (Homo sapiens, HCT-116, 144 h), 280 nM. Moreover, the Ki in assay [2] came out at 2.9 nM.

Turning to `Cc1cc2cc(C(=O)N(Cc3ccc(C(F)(F)F)cn3)Cc3cc4c([nH]c3=O)CCC4)ccc2nc1N` [Example 599, 2-amino-3-methyl-N-[(2-oxo-1,5,6,7-tetrahydrocyclopenta[b]pyridin-3-yl)methyl]-N-[[5-(trifluoromethyl)-2-pyridyl]methyl] quinoline-6-carboxamide], the IC50 was 280 nM in assay [1] and > 1000 nM in assay [3] (Homo sapiens, HCT-116, 144 h). The Ki in assay [2] was found to be 3.12 nM.

On to `Cc1cc2cc(C(=O)N(Cc3ccc(C(F)(F)F)cn3)C3CCCC3C#N)ccc2nc1N` (stereo not drawn) [Example 699, 2-amino-N-(2-cyanocyclopentyl)-3-methyl-N-[[5-(trifluoromethyl)-2-pyridyl]methyl] quinoline-6-carboxamide], for which the IC50 in assay [1] is 50 nM; in assay [3] (Homo sapiens, HCT-116, 144 h), > 1000 nM. Further, the inhibition constant (Ki) in assay [2] is 3.86 nM.

In the case of `Cc1cc2cc(C(=O)N(Cc3ccc(CC(N)=O)cc3)Cc3ccc(C(F)(F)F)cn3)ccc2nc1N` [Example 680, 2-amino-N-[ [4-(2-amino-2-oxoethyl)phenyl]methyl]-3-methyl-N-[[5-(trifluoromethyl)-2-pyridyl]methyl] quinoline-6-carboxamide], the IC50 in assay [1] stood at 157 nM; in assay [3] (Homo sapiens, HCT-116, 144 h) it was 7700 nM. For the same compound, the Ki in assay [2] is 1.76 nM.

Regarding `CO[C@@H]1COCC[C@H]1N(Cc1ccc(C(F)(F)F)cn1)C(=O)c1ccc2nc(N)c(C)cc2c1` [Example 704, 2-amino-N-[(3 S,4R)-3-methoxytetrahydropyran-4-yl]-3-methyl-N-[[5-(trifluoromethyl)-2-pyridyl]methyl] quinoline-6-carboxamide], the IC50 is 80 nM in assay [1] and > 1000 nM in assay [3]. In addition, in assay [2], the Ki turned out to be 25.1 nM.

For `Cc1cc2cc(C(=O)N(Cc3ccc(C(F)(F)F)cn3)C3CCC(C)c4ccccc43)ccc2nc1N` (stereo not drawn) [Example 602, 2-amino-3-methyl-N-(4-methyl-1,2,3,4-tetrahydronaphthalen-1-yl)-N-((5-(trifluoromethyl)pyridin-2-yl)methyl)quinoline-6-carboxamide], the concentration for half-maximal inhibition (IC50) in assay [1] is 85 nM; in assay [3] (Homo sapiens, HCT-116, 144 h), > 1000 nM. In assay [2], the Ki came to 7.26 nM.

For `Cc1cc2cc(C(=O)N(Cc3cncc(F)c3)Cc3ccc(C(F)(F)F)cn3)ccc2nc1N` [Example 597, 2-amino-N-((5-fluoropyridin-3-yl)methyl)-3-methyl-N-((5-(trifluoromethyl)pyridin-2-yl)methyl)quinoline-6-carboxamide], the IC50 in assay [1] was 300 nM; in assay [3] (Homo sapiens, HCT-116, 144 h) it was > 1000 nM. Also, the Ki in assay [2] stood at 6.35 nM.

With `COC(CN(Cc1ccc(C(F)(F)F)cn1)C(=O)c1ccc2nc(N)c(C)cc2c1)C(F)(F)F` (stereo not drawn) [Example 611, 2-amino-3-methyl-N-(3,3,3-trifluoro-2-methoxypropyl)-N-((5-(trifluoromethyl)pyridin-2-yl)methyl)quinoline-6-carboxamide], the IC50 in assay [1] was 70 nM; in assay [3] (Homo sapiens, HCT-116, 144 h) it was > 1000 nM. Moreover, the Ki in assay [2] lay in the range of 3 to 7 nM.

`Cc1cc2cc(C(=O)N(Cc3ccc(C(F)(F)F)cn3)C3COCc4ccccc43)ccc2nc1N` (stereo not drawn) [Example 593, 2-amino-N-(isochroman-4-yl)-3-methyl-N-((5-(trifluoromethyl)pyridin-2-yl)methyl)quinoline-6-carboxamide]: the IC50 in assay [1] is 185 nM; in assay [3] (Homo sapiens, HCT-116, 144 h), > 1000 nM. In addition, in assay [2], the Ki turned out to be 13.2 nM.
